Consider three compounds from US20100234220A1, “Oxooxetanes as Fungicidal Agents” (Bayer CropScience AG, priority 2006, published 2010).

Data set [1] is described as follows: logP determination by HPLC (gradient method, 0.08% HCO2H).
Another data set concerns Venturia inaequalis. Kind of data set: Venturia test (apple)/protective. Format: in vivo. The settings on record: protective, 100 ppm, evaluation 10 days after inoculation. The procedure:
Venturia Test (Apple)/Protective [table] To produce a suitable preparation of active compound, 1 part by weight of active compound is mixed with the stated amounts of solvents and emulsifier, and the concentrate is diluted with water to the desired concentration. To test for protective activity, young plants are sprayed with the preparation of active compound at the stated application rate. After the spray coating has dried on, the plants are inoculated with an aqueous conidia suspension of the apple scab pathogen Venturia inaequalis and then remain in an incubation cabin at about 20° C. and 100% relative atmospheric humidity for 1 day. The plants are then placed in a greenhouse at about 21° C. and a relative atmospheric humidity of about 90%.

As to `CC[C@H](C)[C@@H]1C(=O)O[C@H]1C(=O)Nc1cc(OC)c(OC)c(OC)c1` [Example 3, (2R,3S)-3-[(1S)-1-methylpropyl]-4-oxo-N-(3,4,5-trimethoxyphenyl)oxetane-2-carboxamide], the chromatographic logP in data set [1] worked out at 2.5.
The same measure, in the same setting: under `CC[C@H](C)[C@@H]1C(=O)O[C@H]1C(=O)NCc1ccc(Cl)cc1` [Example 2, (2R,3S)—N-(4-chlorobenzyl)-3-[(1S)-1-methylpropyl]-4-oxooxetane-2-carboxamide] stands 3.04.
Regarding `CC[C@H](C)[C@@H]1C(=O)O[C@H]1C(=O)NCc1cc(OC)cc(OC)c1` [Example 1, (3S)-(1S-Methylpropyl)-(2R)-(3,5-dimethoxybenzylaminocarbonyl)-4-oxooxetane], the efficacy in the data set on Venturia inaequalis is ≥ 70%.
